≈ marks a conversion by molar mass, not a printed value. Like-named read-outs stand apart in the source and are kept apart here.
Columns and labels:
[1] = human, 15 min, 5 μM
[2] = Kinetic solubility in aqueous media (C.3.a); format: physicochemical; settings: kinetic from dmso stock, aqueous buffer pH 7.4
Description: (§1) The solubility of a compound measures the ability of a compound to stay in solution. In the first method, the ability of a compound to stay in aqueous solution upon dilution (see example C.3.a) is measured. DMSO-stock solutions are diluted with a single aqueous buffer solvent in different consecutive steps. Mixtures are then scanned in the BD Gentest Solubility Scanner for the occurrence of precipitation. In the second method the solubility of a compound at different pH's can be measured with the use of a chemiluminescent nitrogen detector (see example C.3.b).
DMSO-stock solutions from 5000-9.8 μM (½ dilutions) are made in DMSO in a 96 well stock solution plate (200 μl per well). After each dilution the samples are mixed. Aliquots of these DMSO solutions (2 μl) are then transferred into 2 other 96 well buffer plates, containing 200 μl per well aqueous buffer. Each of the buffer plates contains either aqueous buffer pH 7.4 or aqueous buffer pH 4.0. After the last dilution the buffer plates are mixed and the samples are stabilized at room temperature for ½ hour. Dilution is done in duplicate for each compound to exclude occasional errors. Mixtures are then scanned in the BD Gentest Solubility Scanner for the occurrence of precipitation. Based on the absence/presence of precipitate in the mixtures the kinetic solubility is calculated by interpolation. Ranking is performed into the 3 classes.

[3] = biological target: histone deacetylase (HeLa nuclear extracts); assay: In vitro assay for inhibition of histone deacetylase (Fluor de Lys, HeLa nuclear extracts); format: biochemical; settings: HeLa nuclear extracts 60 μg/ml, 75 μM Fluor de Lys substrate
From the text: The in vitro assay for inhibition of histone deacetylase (see example C.1) measures the inhibition of HDAC enzymatic activity obtained with the compounds of formula (I).
The HDAC Fluorescent Activity Assay/Drug Discovery Kit of Biomol (cat. No: AK-500-0001) was used. The HDAC Fluorescent Activity Assay is based on the Fluor de Lys (Fluorogenic Histone deAcetylase Lysyl) substrate and developer combination. The Fluor de Lys substrate, comprises an acetylated lysine side chain. Deacetylation of the substrate sensitizes the substrate so that, in the second step, treatment with the Fluor de Lys developer produces a fluorophore.
HeLa nuclear extracts (supplier: Biomol) were incubated at 60 μg/ml with 75 μM of substrate. The Fluor de Lys substrate was added in a buffer containing 25 mM Tris, 137 mM NaCl, 2.7 mM KCl and 1 mM MgCl2.6H2O at pH 7.4. After 30 min, 1 volume of the developer was added. The fluorophore was excited with 355 nm light and the emitted light (450 nm) was be detected on a fluorometric plate reader. For each experiment, controls (containing HeLa nuclear extract and buffer), a blank incubation (containing buffer but no HeLa nuclear extract) and samples (containing compound dissolved in DMSO and further diluted in buffer and HeLa nuclear extract) were run in parallel. In first instance, compounds were tested at a concentration of 10^−5M. […] All sample were tested 4 times. In each test the blank value was subtracted from both the control and the sample values. The control sample represented 100% of substrate deacylation. For each sample the fluorescence was expressed as a percentage of the mean value of the controls. […] Herein the effects of test compounds are expressed as pIC50 (the negative log value of the IC50-value) (see Table F-2).

[4] = system: human A2780 ovarian carcinoma cells; assay: Antiproliferative activity on A2780 cells (MTT); format: cell-based; settings: 96 h, four days of incubation, read-out: Cellular activity pIC50 C.2. (converted)
Description: Cellular activity of the compounds of formula (I) was determined on A2780 tumour cells using a […] assay for cell toxicity or survival (Mosmann Tim, Journal of Immunological Methods 65: 55-63, 1983)(see example C.2).
All compounds tested were dissolved in DMSO and further dilutions were made in culture medium. Final DMSO concentrations never exceeded 0.1% (v/v) in cell proliferation assays. Controls contained A2780 cells and DMSO without compound and blanks contained DMSO but no cells. MTT was dissolved at 5 mg/ml in PBS. A glycine buffer comprised of 0.1 M glycine and 0.1 M NaCl buffered to pH 10.5 with NaOH (1 N) was prepared (all reagents were from Merck).
The human A2780 ovarian carcinoma cells (a kind gift from Dr. T. C. Hamilton [Fox Chase Cancer Centre, Pa., USA]) were cultured in RPMI 1640 medium supplemented with 2 mM L-glutamine, 50 μg/ml gentamicin and 10% fetal calf serum. Cells were routinely kept as monolayer cultures at 37° C. in a humidified 5% CO2 atmosphere. Cells were passaged once a week using a trypsin/EDTA solution at a split ratio of 1:40. All media and supplements were obtained from Life Technologies. Cells were free of mycoplasma contamination as determined using the Gen-Probe Mycoplasma Tissue Culture kit (supplier: BioMérieux).
Cells were seeded in NUNC™ 96-well culture plates (Supplier: Life Technologies) and allowed to adhere to the plastic overnight. Densities used for plating were 1500 cells per well in a total volume of 200 μl medium. After cell adhesion to the plates, medium was changed and drugs and/or solvents were added to a final volume of 200 μl. Following four days of incubation, medium was replaced by 200 μl fresh medium and cell density and viability was assessed using an MTT-based assay. […] For each sample, the mean value for cell growth (in absorbance units) was expressed as a percentage of the mean value for cell growth of the control. […] Herein the effects of test compounds are expressed as pIC50 (the negative log value of the IC50-value)(see Table F-2).

[5] = Solubility with chemiluminescent nitrogen detector (C.3.b); format: physicochemical; settings: pH 2.3, aqueous buffer
Description: as §1
The solubility of a compound, at different pH's, can also be measured with the use of a chemiluminescent nitrogen detector (see Table F-2).

[6] = system: p21 promoter reporter A2780 clone tumour in nude mice; assay: p21 induction capacity, in vivo method (tumour fluorescence); settings: s.c. A2780 reporter clone, 20-40 mpk orally or intravenously daily during 6 days
Description: The last method is an in vivo method wherein mice are used for screening the pharmaceutical activity of a compound. The above described stably transformed tumour cells can be administered to mice in an amount sufficient to effect production of a tumour. After the tumour cells had sufficient time to form a tumour, a potentially active compound can be administered to the animals and the effect of said compound on the tumour cells is evaluated by measuring the expression of the reporter gene. Incubation with pharmaceutical active compounds will result in an increase of reporter gene expression compared to the control levels (see example C.6.b.)
A selected clone was injected subcutaneous (10^7 cells/200 μl) into the flank of nude mice and a calliper measurable tumour was obtained after 12 days. From day 12 on, animals were dosed, orally or intraveinally, daily during 6 days with solvent and 20-40 mpk compound (4-10 animals each). Tumours were evaluated for fluorescence by the in-house developed Automated Whole Body Imaging System (Fluorescent stereomicroscope type Olympus® SZX12 equipped with a GFP filter and coupled to a CCD camera type JAI® CV-M90 controlled by a software package based on the IMAQ Vision Software from National Instruments®).

[7] = Metabolic stability in liver microsomes; settings: reference compounds; 15 min incubation with microsomes, 5 μM

solubility at 0.5 h [2] [µM]	melting point [°C]	Enzymatic activity pIC50 C.1. [3]	IC50 [4] [nM]	Compound	further results
–	–	–	–	COc1cc(N)c(Cl)cc1C(=O)NC1CCN(CCCOc2ccc(F)cc2)CC1OC (stereo not drawn) [Cisapride]	% metabolism [1]: 45%
7.8 (≈ 3.19 µg/mL)	296	9.0	31.6	CC(NCC1CCN(c2ncc(C(=O)NO)cn2)CC1)c1cn(C)c2ccccc12 (stereo not drawn) [Compound 1]	–
9.4 (≈ 4.08 µg/mL)	231	8.9	50.1	Cn1cc(C2CCN(CC3CCN(c4ncc(C(=O)NO)cn4)CC3)C2)c2ccccc21 (stereo not drawn) [Compound 2]	solubility [5]: 1350 µg/mL (≈ 3.11 mM); Tumour fluorescence (reporter gene expression) versus control [6]: increased fluorescence as compared to control
15.6 (≈ 7 µg/mL)	224	8.3	31.6	Cn1cc(C2CCCN(CC3CCN(c4ncc(C(=O)NO)cn4)CC3)C2)c2ccccc21 (stereo not drawn) [Compound 3]	–
–	70	–	–	Cn1cc(C2CCN(CC3CCN(c4ccc(C(=O)NO)cn4)CC3)C2)c2ccccc21 (stereo not drawn) [Compound 4]	–
–	90	–	–	Cn1cc(C2CCN(CC3CCN(c4ccc(C(=O)Nc5ccccc5N)cn4)CC3)C2)c2ccccc21 (stereo not drawn) [Compound 5]	–
–	–	–	–	CCCO [propanol]	% metabolism [7]: 25%
